According to ChEMBL document CHEMBL3399990, “Synthesis of mycothiol conjugate analogues and evaluation of their antimycobacterial activity” (Bioorg Med Chem Lett, 2015):
pIC50: −log10 of the molar value. Converted amounts (≈) assume the structure as drawn.

Tests used:
[1] = Cytotoxicity against human HL60 cells after 48 hrs by MTT assay; type: functional, cell-based; details: HL-60, 48 h
1A9 = assay: Cytotoxicity against human 1A9 cells after 48 hrs by MTT assay; type: functional, cell-based; details: 1A9, 48 h
[2] = test system: Mycolicibacterium smegmatis; assay: Bacteriostatic activity against Mycobacterium smegmatis after 96 hrs by resazurin fluorescence assay; type: functional

Row | SMILES | pIC50 [1] | pIC50 (1A9) | MIC [2]
1 | N[C@@H](CSC(Cl)=C(Cl)Cl)C(=O)N[C@@H]1[C@@H](O)[C@H](O)[C@@H](CO)O[C@@H]1SC1CCCCC1 | 4.12 | 4.10 | 250 µM (≈ 127 µg/mL)
2 | N[C@@H](CSC(Cl)=C(Cl)Cl)C(=O)N[C@@H]1[C@@H](O)[C@H](O)[C@@H](CO)O[C@H]1SC1CCCCC1 | 3.95 | 3.92 | 250 µM (≈ 127 µg/mL)
3 | CC(C)(C)OC(=O)N[C@@H](CSC(Cl)=C(Cl)Cl)C(=O)N[C@@H]1[C@@H](O)[C@H](O)[C@@H](CO)O[C@@H]1SC1CCCCC1 | 4.22 | 3.99 | > 1000 µM
4 | CC(C)(C)OC(=O)N[C@@H](CSC(Cl)=C(Cl)Cl)C(=O)N[C@@H]1[C@@H](O)[C@H](O)[C@@H](CO)O[C@H]1SC1CCCCC1 | 4.78 | 4.48 | > 1000 µM
